In this test the target is Mitogen-activated protein kinase kinase kinase kinase 1 (Homo sapiens, UniProt Q92918). Put plainly: Binding Assay: Lanth: For the binding assay, 4 ul 2×HPK1 and Eu-anti-GST antibody were added to each well of the assay plate using a Multidrop reagent dispenser. The solutions were incubated in a 23 C incubator for 1 h. To each well of the assay plate was added 4 ul 2× Tracer-222 using a Multidrop reagent dispenser. The solutions were again incubated in a 23 C incubator for 1 h. The results of the assay were read using an Envision plate reader with the following parameters: TR_FRET, 340ex/615 and 665em; 100 usec Delay; and 200 usec integration.
Mitogen-activated protein kinase kinase kinase kinase 1, sequence (Q92918 whole entry): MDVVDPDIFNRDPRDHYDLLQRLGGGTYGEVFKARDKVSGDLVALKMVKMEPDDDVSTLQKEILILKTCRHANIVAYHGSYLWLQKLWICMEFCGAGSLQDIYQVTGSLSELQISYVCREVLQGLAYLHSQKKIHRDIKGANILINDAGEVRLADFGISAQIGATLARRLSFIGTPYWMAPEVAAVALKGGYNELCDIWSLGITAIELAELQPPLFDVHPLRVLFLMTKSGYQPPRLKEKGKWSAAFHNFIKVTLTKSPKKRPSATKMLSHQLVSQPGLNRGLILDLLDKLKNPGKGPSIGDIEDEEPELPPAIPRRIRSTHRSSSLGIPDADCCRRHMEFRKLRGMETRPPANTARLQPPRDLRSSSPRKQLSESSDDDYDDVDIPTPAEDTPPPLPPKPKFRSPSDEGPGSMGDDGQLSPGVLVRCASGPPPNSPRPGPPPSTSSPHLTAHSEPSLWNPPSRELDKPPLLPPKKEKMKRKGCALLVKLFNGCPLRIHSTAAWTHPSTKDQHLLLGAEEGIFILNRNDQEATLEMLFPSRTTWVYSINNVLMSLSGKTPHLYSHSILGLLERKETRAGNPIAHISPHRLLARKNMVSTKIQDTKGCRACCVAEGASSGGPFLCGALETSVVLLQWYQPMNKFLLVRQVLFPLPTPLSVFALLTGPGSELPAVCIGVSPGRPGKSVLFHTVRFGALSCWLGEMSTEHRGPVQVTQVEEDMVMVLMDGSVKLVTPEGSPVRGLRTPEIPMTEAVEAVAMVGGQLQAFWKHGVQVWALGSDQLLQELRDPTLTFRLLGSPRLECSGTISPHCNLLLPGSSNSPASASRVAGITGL
Broadly, the Ki is a measure of affinity in units of concentration, obtained from inhibition or displacement. A higher Ki goes with lower affinity. Compound `Cc1ccncc1-c1cc2cc(NC(=O)[C@@H]3C[C@H]3C#N)ncc2c(N)n1` (single isomer, unassigned) gave a Ki of 4.06 nM.

`Cc1ncc(N)c(C)c1-c1cc2cc(NC(=O)[C@@H]3C[C@H]3C)ncc2c(N)n1` (racemic) gave a Ki of 3.2 nM. This Ki and that of the compound before are within 1.5-fold of each other.

`COCCc1ccncc1-c1cc2cc(NC(=O)[C@H]3C[C@@H]3C#N)ncc2c(N)n1` (racemic): the affinity, expressed as Ki, was 21.2 nM. This Ki lies about 6.6-fold higher than the previous one.

Consider `Cc1ccncc1-c1cc2cc(NCC3CC3(F)F)ncc2c(N)n1` (racemic), for which the affinity corresponds to a Ki of 61.3 nM.

Compound `CCc1cc(=O)n(C)cc1-c1cc2cc(NC(=O)[C@@H]3C[C@@H]3F)ncc2c(N)n1` (racemic) displayed a Ki of 440 nM. This Ki lies about 7.2-fold higher than the previous one.

`Cc1ccncc1-c1cc2cc(NC(=O)C3CC34CC4)ncc2c(N)n1` (racemic) showed a Ki of 1.35 nM.

Values taken from ChEMBL document CHEMBL5728527, “Naphthyridines as inhibitors of HPK1” (2021).
